The values that follow come from patent publication US12551573B2, “Compositions and methods for the targeting of PCSK9” (Scribe Therapeutics Inc., priority 2022, dated 2026).

This data set deals with human PCSK9 locus. The experiment in a line: Secreted PCSK9 by ELISA (normalized to total cell count) in Huh7 cells transfected with mRNA and gRNA. In kind it is cell-based. The settings on record: for Secreted PCSK9 / Percent reduction in PCSK9 secretion / Average percent reduction in PCSK9 secretion: paired with LTRP5-ADD-ZIM3 mRNA, Huh7 cells, 6 days post-transfection; for Secreted PCSK9: normalized to total cell count; for Percent reduction in PCSK9 secretion: relative to non-targeting gRNA control; for Average percent reduction in PCSK9 secretion: averaged from the two doses. On the procedure: To assess PCSK9 secretion, seeded Huh7 cells were transfected with mRNA encoding a catalytically-active CasX 676, dXR1, or LTRP5-ADD-ZIM3 and a gRNA with scaffold 316 and spacer targeting either the B2M or PCSK9 locus. Media supernatant was harvested at 6, 18, 36, and 87 days post-transfection to assess level of PCSK9 secretion by ELISA. Levels of PCSK9 secretion were normalized to total cell count. As an additional control, PCSK9 secretion was also measured in the media supernatant harvested from wells containing untreated, naïve cells.
The following three human hepatocyte cancer cell lines were used in this experiment: HepG2 cells, Hep3B cells, and Huh7 cells. ˜15,000 cells of each cell line were seeded per well; the next day, seeded cells were transfected with mRNA encoding a catalytically-active CasX 676, dXR1, or LTRP5-ADD-ZIM3 and a gRNA with scaffold 316 and spacer targeting either the B2M or PCSK9 locus (see Table 23 for specific spacers and sequences). Media supernatant was harvested at 4 days post-transfection to assess level of PCSK9 secretion by ELISA, and levels of PCSK9 secretion were normalized to total cell count and illustrated in FIGS. 11A-11C. Culturing of treated Huh7 cells continued, and media supernatant was harvested at 14 and 27 days post-transfection for measuring PCSK9 secretion by ELISA. As an additional experimental control, PCSK9 secretion was also measured in the media supernatant harvested from wells containing untreated, naïve cells.
To assess PCSK9 secretion, seeded Huh7 cells were co-transfected with mRNA encoding for LTRP5-ADD-ZIM3 and a gRNA with scaffold 316 and spacer targeting the PCSK9 locus using Lipofectamine™ 3000. Two doses of total RNA input at a 2:1 mass ratio of mRNA to gRNA were used for screening: 50 ng mRNA: 25 ng gRNA and 25 ng mRNA: 12.5 ng gRNA. Media supernatant was harvested at 6 days post-transfection to assess level of PCSK9 secretion by ELISA (Table 74). Levels of PCSK9 secretion were normalized to total cell count. As an additional control, PCSK9 secretion was also measured in the media supernatant harvested from cells transfected with mRNA encoding for mScarlet.
(ELISA stands for enzyme-linked immunosorbent assay.)

In the case of “UUUUACACACCAUGUUCAAG (listed as RNA, chemistry not given here) [spacer 6.129, Promoter]”, the “Average percent reduction in PCSK9 secretion” value (from here on “Average percent reduction”) amounted to 0.16%. In addition, for the setting “25 ng mRNA:12.5 ng gRNA”, the “Secreted PCSK9” value is given as 90.82 ng/mL and the “Percent reduction in PCSK9 secretion” value is 27.47%. For the same substance, where the note is “50 ng mRNA:25 ng gRNA”, the “Secreted PCSK9” value was 59.93 ng/mL and the “Percent reduction in PCSK9 secretion” value was 27.16%.

Consider “TG-06-349 (guide CUGUGCCUGGUGCAGUUCCC; listed as RNA, chemistry not given here)”, for which the “Average percent reduction” value worked out at 16.95%. Further, where the note is “25 ng mRNA:12.5 ng gRNA”, the “Secreted PCSK9” value was found to be 87.55 ng/mL and the “Percent reduction in PCSK9 secretion” value stood at 22.89%. Moreover, where the note is “50 ng mRNA:25 ng gRNA”, the “Secreted PCSK9” value came to 91.34 ng/mL and the “Percent reduction in PCSK9 secretion” value was 11.02%.

Regarding “TG-06-342 (guide AAUUACAGGCAACAGGAAGG; listed as RNA, chemistry not given here)”, the “Average percent reduction” value came to 15.87%. Also, for the setting “25 ng mRNA:12.5 ng gRNA”, the “Secreted PCSK9” value is 75.23 ng/mL and the “Percent reduction in PCSK9 secretion” value turned out to be 5.6%. For the same substance, under “50 ng mRNA:25 ng gRNA”, the “Secreted PCSK9” value stood at 51.55 ng/mL and the “Percent reduction in PCSK9 secretion” value was 37.34%.

In the case of “UCCUCCUGCCUGGUACACAA (listed as RNA, chemistry not given here) [spacer 6.127, Promoter]”, the “Average percent reduction” value amounted to 51.82%. Further, under “25 ng mRNA:12.5 ng gRNA”, the “Secreted PCSK9” value was 49.1 ng/mL and the “Percent reduction in PCSK9 secretion” value is 31.08%. In addition, under “50 ng mRNA:25 ng gRNA”, the “Secreted PCSK9” value came out at 22.57 ng/mL and the “Percent reduction in PCSK9 secretion” value was determined as 72.56%.

As to “ACUUUGUUUGCAAAGACCUC (listed as RNA, chemistry not given here) [spacer 6.117, Promoter]”, the “Average percent reduction” value was determined as 10.73%. Besides, where the note is “25 ng mRNA:12.5 ng gRNA”, the “Secreted PCSK9” value is reported as 98.05 ng/mL and the “Percent reduction in PCSK9 secretion” value is given as 37.62%. For the setting “50 ng mRNA:25 ng gRNA”, the “Secreted PCSK9” value amounted to 68.98 ng/mL and the “Percent reduction in PCSK9 secretion” value came out at 16.16%.

Turning to “AGGAGCAGCUAGUUGGUAAG (listed as RNA, chemistry not given here) [spacer 6.139, Promoter]”, the “Average percent reduction” value amounted to 73.01%. Where the note is “25 ng mRNA:12.5 ng gRNA”, the “Secreted PCSK9” value stood at 25.45 ng/mL and the “Percent reduction in PCSK9 secretion” value turned out to be 64.28%. For the same substance, for the setting “50 ng mRNA:25 ng gRNA”, the “Secreted PCSK9” value was 15.03 ng/mL and the “Percent reduction in PCSK9 secretion” value is 81.73%.

Turning to “TG-06-002 (guide ACCGCUGCGCCAAGGUGCGG; listed as RNA, chemistry not given here)”, the “Average percent reduction” value was 8.16%. Further, for the setting “25 ng mRNA:12.5 ng gRNA”, the “Secreted PCSK9” value was found to be 83.15 ng/mL and the “Percent reduction in PCSK9 secretion” value came to 16.71%. Moreover, for the setting “50 ng mRNA:25 ng gRNA”, the “Secreted PCSK9” value was found to be 81.95 ng/mL and the “Percent reduction in PCSK9 secretion” value is on record as 0.4%.

Turning to “AGAAAUCAACUGGACAAGCA (listed as RNA, chemistry not given here) [spacer 6.128, Promoter]”, the “Average percent reduction” value turned out to be 30.63%. For the same substance, for the setting “25 ng mRNA:12.5 ng gRNA”, the “Secreted PCSK9” value came out at 62.29 ng/mL and the “Percent reduction in PCSK9 secretion” value is reported as 12.57%. Also, where the note is “50 ng mRNA:25 ng gRNA”, the “Secreted PCSK9” value is reported as 42.21 ng/mL and the “Percent reduction in PCSK9 secretion” value stood at 48.7%.

For “GCAGCGACGUCGAGGCGCUC (listed as RNA, chemistry not given here) [spacer 6.155, Exon 1]”, the “Average percent reduction” value is reported as 42.55%. Further, for the setting “25 ng mRNA:12.5 ng gRNA”, the “Secreted PCSK9” value is on record as 56.36 ng/mL and the “Percent reduction in PCSK9 secretion” value is listed as 20.89%. Where the note is “50 ng mRNA:25 ng gRNA”, the “Secreted PCSK9” value came to 29.45 ng/mL and the “Percent reduction in PCSK9 secretion” value was 64.21%.

In the case of “TG-06-350 (guide GUGUCAUAAAGAAAUUGCCU; listed as RNA, chemistry not given here)”, the “Average percent reduction” value is listed as 9.07%. Under “25 ng mRNA:12.5 ng gRNA”, the “Secreted PCSK9” value was 67.87 ng/mL and the “Percent reduction in PCSK9 secretion” value turned out to be 4.74%. In addition, for the setting “50 ng mRNA:25 ng gRNA”, the “Secreted PCSK9” value is listed as 71.25 ng/mL and the “Percent reduction in PCSK9 secretion” value worked out at 13.4%.

Consider “TG-06-249 (guide AAACCAAAUCGGAACCCACU; listed as RNA, chemistry not given here)”, for which the “Average percent reduction” value stood at 10.89%. Further, under “25 ng mRNA:12.5 ng gRNA”, the “Secreted PCSK9” value is 82.36 ng/mL and the “Percent reduction in PCSK9 secretion” value was determined as 15.61%. Besides, for the setting “50 ng mRNA:25 ng gRNA”, the “Secreted PCSK9” value is 87.36 ng/mL and the “Percent reduction in PCSK9 secretion” value is reported as 6.18%.

With “ACUGGCCUUAACCUGGCAGC (listed as RNA, chemistry not given here) [spacer 6.141, Promoter]”, the “Average percent reduction” value is recorded as 82.75%. Moreover, under “25 ng mRNA:12.5 ng gRNA”, the “Secreted PCSK9” value was found to be 12.58 ng/mL and the “Percent reduction in PCSK9 secretion” value is on record as 82.34%. Besides, for the setting “50 ng mRNA:25 ng gRNA”, the “Secreted PCSK9” value was 13.86 ng/mL and the “Percent reduction in PCSK9 secretion” value was 83.16%. Besides, the “average reduction in secreted PCSK9 levels” value (Huh7, LTRP5-ADD-ZIM3 mRNA + gRNA scaffold 316 (v1), 6 days, averaged from two doses (50 ng mRNA:25 ng gRNA, 25 ng:12.5 ng), relative to non-targeting gRNA) is 82.75%.

Regarding “CCUUUUCAUCCUCCUGCCUG (listed as RNA, chemistry not given here) [spacer 6.126, Promoter]”, the “Average percent reduction” value is 54.27%. Besides, under “25 ng mRNA:12.5 ng gRNA”, the “Secreted PCSK9” value was determined as 44.82 ng/mL and the “Percent reduction in PCSK9 secretion” value is recorded as 37.09%. For the same substance, where the note is “50 ng mRNA:25 ng gRNA”, the “Secreted PCSK9” value is 23.48 ng/mL and the “Percent reduction in PCSK9 secretion” value is reported as 71.46%.

Regarding “UGGGUCCACCUUGUCUCCUG (listed as RNA, chemistry not given here) [spacer 6.145, Promoter]”, the “Average percent reduction” value was determined as 77.39%. Further, where the note is “25 ng mRNA:12.5 ng gRNA”, the “Secreted PCSK9” value is 18.54 ng/mL and the “Percent reduction in PCSK9 secretion” value is 73.98%. Where the note is “50 ng mRNA:25 ng gRNA”, the “Secreted PCSK9” value is on record as 15.8 ng/mL and the “Percent reduction in PCSK9 secretion” value came to 80.8%.

As for “GUGCUCGGGUGCUUCGGCCA (listed as RNA, chemistry not given here) [spacer 6.5, Exon 1]”, the “Average percent reduction” value was 5.64%. Under “25 ng mRNA:12.5 ng gRNA”, the “Secreted PCSK9” value is given as 76.37 ng/mL and the “Percent reduction in PCSK9 secretion” value amounted to 7.19%. Moreover, under “50 ng mRNA:25 ng gRNA”, the “Secreted PCSK9” value is 67.08 ng/mL and the “Percent reduction in PCSK9 secretion” value was found to be 18.47%.

“Non-targeting (guide CGAGACGTAATTACGTCTCG; chemistry not given here)”: the “Average percent reduction” value turned out to be 0%. Also, under “25 ng mRNA:12.5 ng gRNA”, the “Secreted PCSK9” value stood at 71.24 ng/mL and the “Percent reduction in PCSK9 secretion” value came to 0%. Where the note is “50 ng mRNA:25 ng gRNA”, the “Secreted PCSK9” value came out at 82.28 ng/mL and the “Percent reduction in PCSK9 secretion” value worked out at 0%.

On to “GCGCGCCCCUUCACGCGCCC (listed as RNA, chemistry not given here) [spacer 6.159, Exon 1]”, for which the “Average percent reduction” value is reported as 10.97%. Also, where the note is “25 ng mRNA:12.5 ng gRNA”, the “Secreted PCSK9” value was 80.84 ng/mL and the “Percent reduction in PCSK9 secretion” value is listed as 13.47%. Besides, for the setting “50 ng mRNA:25 ng gRNA”, the “Secreted PCSK9” value was found to be 53.15 ng/mL and the “Percent reduction in PCSK9 secretion” value is listed as 35.4%.

In the case of “UCCCAGUAUCGACAGCCCUU (listed as RNA, chemistry not given here) [spacer 6.123, Promoter]”, the “Average percent reduction” value was 45.46%. Moreover, for the setting “25 ng mRNA:12.5 ng gRNA”, the “Secreted PCSK9” value was found to be 51.32 ng/mL and the “Percent reduction in PCSK9 secretion” value amounted to 27.97%. Further, under “50 ng mRNA:25 ng gRNA”, the “Secreted PCSK9” value is recorded as 30.49 ng/mL and the “Percent reduction in PCSK9 secretion” value is 62.95%.
